Test results: PMC2708596 (Toxicological Sciences, 2009)
Like-named read-outs stand apart in the source and are kept apart here.

Columns and labels:
[1] = humans, ref Sangster et al., 1987, cited from earlier work
[2] = rats, 0.05 mg/kg bw; ref Anthony et al., 1987; cited from earlier work
[3] = Male rat, Kidney, ref Punt et al. (2008), cited from earlier work
[4] = Phase I metabolism of estragole by human liver microsomes; type: in vitro ADME
[5] = PBBK model for estragole in human; conditions: 0.001 mg/kg bw, after 8 h, compared with Sangster et al., 1987
[6] = Male rat, Lung, ref Punt et al. (2008), cited from earlier work
[7] = Male rat, Liver; estragole metabolites; ref Punt et al. (2008); cited from earlier work

| predicted formation compared with the reported in vivo level [5] | Compound | dose excreted as 14CO2 (level of O-demethylation) ([1]; 0.001 mg/kg bw, after 8 h) | radioactivity excreted in the urine ([1]; 0.001 mg/kg bw, after 8 h) | radioactivity excreted in the urine ([1]; 0.001 mg/kg bw, after 24 h) | radioactivity excreted in the urine ([1]; 0.001 mg/kg bw, after 48 h) | radioactivity not recovered ([1]; within 48 h) | oral dose accounted for by O-demethylation [2] | Scaled Vmax (app) ([3]; microsomal protein yield 7 mg/g) | Catalytic efficiency [3] | Km ([3]; read-out: Km (app)) | Scaled Vmax (app) ([4]; Human, Liver, estragole metabolites, microsomal protein yield 32 mg/g) | Catalytic efficiency ([4]; Human, Liver, estragole metabolites, scaled Vmax (app)/Km(app)) | In vitro catalytic efficiency ([4]; Vmax (app)/Km(app) × 1000 μl/ml) | Scaled Vmax (app) ([6]; microsomal protein yield 20 mg/g) | Catalytic efficiency [6] | Km ([6]; read-out: Km (app)) | Catalytic efficiency [7] | Scaled Vmax (app) [7] |
| --- | --- | --- | --- | --- | --- | --- | --- | --- | --- | --- | --- | --- | --- | --- | --- | --- | --- | --- |
| – | C=CCc1ccc(OC)cc1 [estragole, 4-allylanisol] | ~10 % of the dose | 31–37 % of the dose | 47–53 % of the dose | 54–62 % of the dose | ~30% | 53 % of the oral dose | – | – | – | – | – | – | – | – | – | – | – |
| fourfold lower | C=CCc1ccc(O)cc1 [4-allylphenol] | – | – | – | – | – | – | 0.2 μmol h^−1 (g tissue)^−1 | 400 ml h^−1 (g liver)^−1 | 0.5 µM | 0.7 μmol h^−1 (g tissue)^−1 | 2 ml h^−1 (g liver)^−1 | 1.3 μl min^−1 (mg microsomal protein)^−1 | 0.8 μmol h^−1 (g tissue)^−1 | 1600 ml h^−1 (g liver)^−1 | 0.5 µM | 3 ml h^−1 (g liver)^−1 | 1.6 μmol h^−1 (g tissue)^−1 |
